Source: ChEMBL document CHEMBL5715935 (Int J Cancer, 2002)
pIC50: −log10 of the molar value. Calls of active or inactive are those of the source. No cut-off for these calls is given here.

Experiments:
[1] = Cytotoxicity against human HS27 cells assessed as inhibition of cell proliferation incubated for 72 hrs by MTT assay; assay type: toxicity, cell-based
LoVo [2] = experiment: Antitumor activity against human Lovo cells xenografted CD1 nude mouse assessed as relative tumor volume at 100 mg/kg, ip administered 3 times per day at 8 hrs intervals for 5 days; assay type: functional; settings: time 5 day
HT-1376 = experiment: Cytotoxicity against p53 mutant human HT-1376 cells assessed as inhibition of cell proliferation incubated for 72 hrs by MTT assay; assay type: functional, cell-based; settings: HT-1376, 72 h
[3] = molecular target: Mitogen-activated protein kinase 14 (Homo sapiens) (UniProt Q16539); experiment: Inhibition of human SAPK2A using myelin as substrate at 20 uM in presence of gamma-32P-ATP by scintillation counter analysis
Chain of Mitogen-activated protein kinase 14 (Homo sapiens) (Q16539 whole entry): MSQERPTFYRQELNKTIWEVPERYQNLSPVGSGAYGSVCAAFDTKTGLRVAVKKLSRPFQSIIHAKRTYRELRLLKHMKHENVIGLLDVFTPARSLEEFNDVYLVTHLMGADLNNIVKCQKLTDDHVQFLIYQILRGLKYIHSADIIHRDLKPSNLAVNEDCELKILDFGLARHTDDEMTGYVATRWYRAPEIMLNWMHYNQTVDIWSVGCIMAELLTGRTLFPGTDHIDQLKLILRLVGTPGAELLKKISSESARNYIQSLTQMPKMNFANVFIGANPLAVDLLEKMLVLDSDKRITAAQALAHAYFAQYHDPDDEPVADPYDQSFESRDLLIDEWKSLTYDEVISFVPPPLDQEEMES

[4] = molecular target: cAMP-dependent protein kinase (PKA) (Homo sapiens) (UniProt P22694+P17612+P22612); experiment: Inhibition of human PKA at 20 uM; assay type: protein assay
MIA PaCa-2 [5] = experiment: Cytotoxicity against p53 mutant human MIA PaCa-2 cells assessed as inhibition of cell proliferation incubated for 72 hrs by MTT assay; assay type: functional, cell-based; settings: MIA PaCa-2, 72 h
MES-SA/Dx5 [6] = experiment: Antitumor activity against human MES-SA/Dx5 cells xenografted CD1 nude mouse assessed as time for tumor growth delay at 200 mg/kg, po administered 3 times per day at 8 hrs intervals for 10 days; assay type: functional; settings: time 10 day
LoVo [7] = experiment: Antitumor activity against human Lovo cells xenografted CD1 nude mouse assessed as low tumor volume at 100 mg/kg, ip administered 3 times per day at 8 hrs intervals for 19 days; assay type: functional, organism-based; settings: time 19.0 day
[8] = molecular target: Protein kinase C (PKC) (Homo sapiens) (UniProt O94806+P41743+P17252+P05129+Q05655+P05771+Q05513+Q02156+P24723+Q15139+Q04759); experiment: Inhibition of human PKC at 20 uM; assay type: protein assay
LoVo [9] = experiment: Induction of cell death in human LoVo cells assessed as G1 phase of the cell cycle at 20 uM incubated for 24 hrs by TUNEL staining based flow cytometry analysis; assay type: functional
LoVo [10] = experiment: Induction of cell death in human LoVo cells assessed as G2/M phase of the cell cycle at 20 uM incubated for 24 hrs by TUNEL staining based flow cytometry analysis; assay type: functional
MIA PaCa-2 [11] = experiment: Cytotoxicity against p53 wild-type human MIA PaCa-2 cells assessed as inhibition of cell proliferation incubated for 72 hrs by MTT assay; assay type: functional, cell-based; settings: MIA PaCa-2, 72 h
MES-SA/Dx5 [12] = experiment: Antitumor activity against human MES-SA/Dx5 cells xenografted CD1 nude mouse assessed as T/C ratio at 500 mg/kg, po administered 3 times per day at 8 hrs intervals and measured at 11 day relative to control; assay type: functional
LoVo [13] = experiment: Antitumor activity against human Lovo cells xenografted CD1 nude mouse assessed as low tumor volume at 100 mg/kg, ip administered 3 times per day at 8 hrs intervals for 24 days; assay type: functional, organism-based; settings: time 24.0 day
LoVo [14] = experiment: Antitumor activity against human Lovo cells xenografted CD1 nude mouse assessed as T/C ratio at 100 mg/kg, ip administered 3 times per day at 8 hrs intervals for 5 days relative to control; assay type: functional; settings: time 5 day
LoVo [15] = experiment: Induction of cell death in human LoVo cells assessed as S phase of the cell cycle at 20 uM incubated for 24 hrs by TUNEL staining based flow cytometry analysis; assay type: functional
HT-29 = experiment: Cytotoxicity against p53 mutant human HT-29 cells assessed as inhibition of cell proliferation incubated for 72 hrs by MTT assay; assay type: functional, cell-based; settings: HT-29, 72 h
LoVo [16] = experiment: Induction of cell death in human LoVo cells assessed as sub-G1 phase of the cell cycle at 20 uM incubated for 24 hrs by TUNEL staining based flow cytometry analysis; assay type: functional
DU-145 = experiment: Cytotoxicity against p53 mutant human DU-145 cells assessed as inhibition of cell proliferation incubated for 72 hrs by MTT assay; assay type: functional, cell-based; settings: DU-145, 72 h
A498 = experiment: Cytotoxicity against p53 wild-type human A498 cells assessed as inhibition of cell proliferation incubated for 72 hrs by MTT assay; assay type: functional, cell-based; settings: A498, 72 h
MES-SA/Dx5 [17] = experiment: Antitumor activity against human MES-SA/Dx5 cells xenografted CD1 nude mouse assessed as tumor volume at 500 mg/kg, po administered 3 times per day at 8 hrs intervals and measured on 7 day; assay type: functional, organism-based
MIA PaCa-2 [18] = experiment: Cytotoxicity against human MIA PaCa-2 cells assessed as inhibition of cell proliferation incubated for 72 hrs by MTT assay; assay type: functional, cell-based; settings: MIA PaCa-2, 72 h
MES-SA/Dx5 [19] = experiment: Antitumor activity against human MES-SA/Dx5 cells xenografted CD1 nude mouse assessed as tumor volume at 500 mg/kg, po administered 3 times per day at 8 hrs intervals and measured on 11 day; assay type: functional, organism-based
ChaGo-K-1 = experiment: Cytotoxicity against human ChaGo-K-1 cells assessed as inhibition of cell proliferation incubated for 72 hrs by MTT assay; assay type: functional, cell-based; settings: ChaGo-K-1, 72 h
LoVo [20] = experiment: Induction of cell death in human LoVo cells assessed as increase in the number of cells with a sub-G1 DNA content at 20 uM incubated for 24 hrs by PI staining based flow cytometry analysis; assay type: functional
HCT-116 = experiment: cells; settings: Homo sapiens, HCT-116, 72 h
[21] = Cytotoxicity against human IMR-90 cells assessed as inhibition of cell proliferation incubated for 72 hrs by MTT assay; assay type: toxicity, cell-based
LoVo [22] = experiment: Induction of cell death in human LoVo cells assessed as increase in total cell numbers at 20 uM incubated upto 24 hrs by TUNEL staining based flow cytometry analysis; assay type: functional
HCT-15 = experiment: Cytotoxicity against p53 mutant human HCT-15 cells assessed as inhibition of cell proliferation incubated for 72 hrs by MTT assay; assay type: functional, cell-based; settings: HCT-15, 72 h
LoVo [23] = experiment: Induction of cell death in human LoVo cells assessed as accumulation of cells in the cell cycle at 20 uM incubated for 24 hrs by PI staining based flow cytometry analysis; assay type: functional
MES-SA/Dx5 [24] = experiment: Cytotoxicity against human MES-SA/Dx5 cells assessed as inhibition of cell proliferation incubated for 72 hrs by MTT assay; assay type: functional, cell-based; settings: MES-SA/Dx5, 72 h
LoVo [25] = experiment: Induction of cell death in human LoVo cells assessed as decrease in total cell numbers at 20 uM incubated for 48 hrs by TUNEL staining based flow cytometry analysis; assay type: functional
LoVo [26] = experiment: Antitumor activity against human Lovo cells xenografted CD1 nude mouse assessed as reduction in tumor volume at 100 mg/kg, ip administered 3 times per day at 8 hrs intervals for 5 days relative to control; assay type: functional; design: scale not given: the % may be the effect or the level left; settings: time 5 day
LoVo [27] = experiment: Cytotoxicity against p53 wild-type human LoVo cells assessed as inhibition of cell proliferation incubated for 72 hrs by MTT assay; assay type: functional, cell-based
NCI-H69 = experiment: Cytotoxicity against p53 mutant human NCI-H69 cells assessed as inhibition of cell proliferation incubated for 72 hrs by MTT assay; assay type: functional, cell-based; settings: NCI-H69, 72 h
MES-SA = experiment: Cytotoxicity against human MES-SA cells assessed as inhibition of cell proliferation incubated for 72 hrs by MTT assay; assay type: functional, cell-based
HepG2 = experiment: Cytotoxicity against p53 wild-type human HepG2 cells assessed as inhibition of cell proliferation incubated for 72 hrs by MTT assay; assay type: functional, cell-based; settings: HepG2, 72 h
A549 = experiment: Cytotoxicity against p53 wild-type human A549 cells assessed as inhibition of cell proliferation incubated for 72 hrs by MTT assay; assay type: functional, cell-based; settings: A549, 72 h
ACHN = experiment: Cytotoxicity against p53 wild-type human ACHN cells assessed as inhibition of cell proliferation incubated for 72 hrs by MTT assay; assay type: functional, cell-based
LoVo [28] = experiment: Antitumor activity against human Lovo cells xenografted CD1 nude mouse assessed as time for tumor growth delay at 100 mg/kg, ip administered 3 times per day at 8 hrs intervals for 5 days; assay type: functional; settings: time 5 day
LoVo [29] = experiment: Induction of cell death in human LoVo cells assessed as total cell numbers at 20 uM incubated after 8 hrs by TUNEL staining based flow cytometry analysis; assay type: functional
MES-SA/Dx5 [30] = experiment: Antitumor activity against human MES-SA/Dx5 cells xenografted CD1 nude mouse assessed as tumor volume at 500 mg/kg, po administered 3 times per day at 8 hrs intervals and measured on 4 day; assay type: functional, organism-based
MES-SA/Dx5 [31] = experiment: Antitumor activity against human MES-SA/Dx5 cells xenografted CD1 nude mouse assessed as reduction in tumor volume at 200 mg/kg, po administered 3 times per day at 8 hrs intervals and measured upto 16 days; assay type: functional, organism-based; settings: time <= 16.0 day
LoVo [32] = experiment: Antitumor activity against human Lovo cells xenografted CD1 nude mouse assessed as low tumor volume at 100 mg/kg, ip administered 3 times per day at 8 hrs intervals for 16 days; assay type: functional, organism-based; settings: time 16.0 day
NCI-H460 = experiment: Cytotoxicity against p53 wild-type human NCI-H460 cells assessed as inhibition of cell proliferation incubated for 72 hrs by MTT assay; assay type: functional, cell-based; settings: NCI-H460, 72 h
LoVo [33] = experiment: Antitumor activity against human Lovo cells xenografted CD1 nude mouse assessed as low tumor volume at 100 mg/kg, ip administered 3 times per day at 8 hrs intervals for 32 days; assay type: functional, organism-based; settings: time 32.0 day
MES-SA/Dx5 [34] = experiment: Antitumor activity against human MES-SA/Dx5 cells xenografted CD1 nude mouse assessed as time for tumor growth delay at 500 mg/kg, po administered 3 times per day at 8 hrs intervals for 4 days; assay type: functional; settings: time 4 day
MES-SA/Dx5 [35] = experiment: Antitumor activity against human MES-SA/Dx5 cells xenografted CD1 nude mouse assessed as T/C ratio at 200 mg/kg, po administered 3 times per day at 8 hrs intervals for 10 days and measured at day 11 relative to control; assay type: functional; settings: time 11 day

Compound: CC[C@H](CO)Nc1nc(NCc2ccccc2)c2ncn(C(C)C)c2n1 [SELICICLIB]
- IC50 at 72 h [1]: 22.2 µM
- Activity (LoVo [2]): 4.8
- pIC50 (HT-1376): 4.74
- inhibition [3]: inactive
- inhibition [4]: inactive
- pIC50 (MIA PaCa-2 [5]): 4.86
- Time (MES-SA/Dx5 [6]): 1.3 days
- Activity (LoVo [7]): Active
- inhibition [8]: inactive
- Activity (LoVo [9]): Active
- Activity (LoVo [10]): Active
- pIC50 (MIA PaCa-2 [11]): 4.92
- T/C (MES-SA/Dx5 [12]): 47.3%
- Activity (LoVo [13]): Active
- T/C (LoVo [14]): 58.3%
- Activity (LoVo [15]): Active
- pIC50 (HT-29): 4.84
- Activity (LoVo [16]): Active
- pIC50 (DU-145): 4.73
- pIC50 (A498): 4.88
- Activity (MES-SA/Dx5 [17]): Active
- pIC50 (MIA PaCa-2 [18]): 4.82
- Activity (MES-SA/Dx5 [19]): Active
- pIC50 (ChaGo-K-1): 4.52
- Activity (LoVo [20]): Active
- pIC50 (HCT-116): 4.97
- IC50 at 72 h [21]: > 100 µM
- Activity (LoVo [22]): Active
- pIC50 (HCT-15): 4.74
- Activity (LoVo [23]): inactive
- pIC50 (MES-SA/Dx5 [24]): 5.10
- Activity (LoVo [25]): Active
- Activity (LoVo [26]): 44.8%
- pIC50 (LoVo [27]): 5.03
- pIC50 (NCI-H69): 4.59
- pIC50 (MES-SA): 4.92
- pIC50 (HepG2): 4.95
- pIC50 (A549): 4.80
- pIC50 (ACHN): 4.92
- Time (LoVo [28]): 1.4 days
- Activity (LoVo [29]): Active
- Activity (MES-SA/Dx5 [30]): Active
- Activity (MES-SA/Dx5 [31]): inactive
- Activity (LoVo [32]): Active
- pIC50 (NCI-H460): 4.88
- Activity (LoVo [33]): Active
- Time (MES-SA/Dx5 [34]): 1.7 days
- Activity (MES-SA/Dx5 [35]): 85.7%
